Experiments:
[1] = system: microbes that cause respiratory disease in animals; assay: Activity against the microbes that cause respiratory disease in animals (statement); format: cell-based
[2] = Injection site reactions in cattle; format: in vivo; details: injectable pharmaceutical compositions
Procedure: Cattle injected with injectable pharmaceutical compositions containing Compound (A) were evaluated for reactions at the injection site. These injection site reactions were compared to the injection site reactions of cattle injected with injectable pharmaceutical compositions containing Compounds (B) and (C). The compounds were formulated as aqueous solution injectable pharmaceutical compositions or as suspension injectable pharmaceutical compositions as indicated below. These formulations were prepared as described in Examples 1 and 2. Compound (A) was formulated as both an aqueous solution using the free base form of the compound and as a suspense using the dihydrochloride salt of the compound. The composition of the aqueous solution injectable pharmaceutical composition was 15% w/v of Compound A, 15% w/v Poloxamer […], 6% w/v Benzyl Alcohol, 7% w/v Citric Acid, and QS Water. The composition of the suspension injectable pharmaceutical composition was 15% w/v Compound A (17.5% w/v HCl salt of Compound A), 0.1% w/v Kolliphor HS 15 and QS Miglyol 812. Compound A was administered to the animals in a dose of 10 mg/kilogram of body weight. Compound (B) was formulated as both an aqueous solution using the free base form of the compound and as a suspense using the dihydrochloride salt of the compound. The composition of the aqueous solution injectable pharmaceutical composition was 15% w/v of Compound B, 15% w/v Poloxamer […], 6% w/v Benzyl Alcohol, 7% w/v Citric Acid, and QS Water. The composition of the suspension injectable pharmaceutical composition was 15% w/v Compound B (17.5% w/v HCl salt of Compound B), 0.1% w/v Kolliphor HS 15 and QS Miglyol 812. Compound A was administered to the animals in a dose of 10 mg/kilogram of body weight. Compound (C) was formulated as both an aqueous solution using the free base form of the compound. The composition of the aqueous solution injectable pharmaceutical composition was 10% w/v of Compound C, 15% w/v Poloxamer […], 6% w/v Benzyl Alcohol, 7% w/v Citric Acid, and QS Water. Compound A was administered to the animals in a dose of 10 mg/kilogram of body weight. Injection sites were examined clinically by a trained person, Size of the swelling is measured with a ruler to the closest 0.5 cm horizontally, vertical and depth. These three measured values were multiplied to an estimation of the volume of the square box surrounding the observed swelling.

SMILES | Activity against the microbes that cause respiratory disease in animals [1] | Injection site reactions, overall assessment [2] | Injection site reactions, overall assessment ([2]; listed as Compound (C)) | Injection site reactions, overall assessment ([2]; listed as Compound (B))
CC(C)(N)[C@H](NC(=O)c1ccc(C#Cc2ccc(CNCC(F)(F)F)cc2)cc1)C(=O)NO [Compound C] | active against the microbes that cause respiratory disease in animals | not resolved during the duration of the study | unacceptable injection site reactions | –
CC(C)(N)[C@H](NC(=O)c1ccc(C#Cc2ccc(CNC3CC3)cc2)cc1)C(=O)NO [Compound B] | active against the microbes that cause respiratory disease in animals | not resolved during the duration of the study | – | unacceptable injection site reactions
